The results in this text go back to patent publication US20040033210A1, “Enhancement of antibody-cytokine fusion protein mediated immune responses by co-administration with prostaglandin inhibitor” (EMD Lexigen Research Center Corp., priority 1998, published 2004).

This assay concerns LLC-EpCAM subcutaneous tumors. The experiment in a line: Combination therapy of LLC-Ep subcutaneous tumors in C57BL/6 mice with indomethacin (Example 5), tumor volume. It is filed as in vivo. The settings on record: after treatment for 22 days; fusion protein 25 μg/mouse i.v., 5 daily injections; indomethacin 20 μg/mL in drinking water throughout. On the procedure: FIG. 5 is a line graph depicting the effect on subcutaneous tumors of an antibody-cytokine fusion protein administered either alone or in combination with indomethacin. The size of LLC-EpCAM subcutaneous tumors were monitored in mice treated with phosphate buffered saline (closed diamonds), a huKS-huγ1-huIL2 fusion protein (closed squares), indomethocin (closed triangles), and a combination of the huKS-huγ1-huIL2 fusion protein and indomethocin (crosses).
Female C57lB6 mice were injected subcutaneously in the mid-back with LLC-Ep cells (5×10^5 per mouse) grown in cell culture. After about two weeks, animals with palpable tumors in the range of 150-400 mm^3 were divided into four groups, with an equal distribution of tumor sizes between the groups. […] Tumor growth was monitored by volumetric measurements until animals in the control group became moribund and were euthanized. Tumor volumes were measured with calipers and calculated as V=4 π/3 (0.5L×0.5W×0.5H), where L is the length, W is the width, and H is the height of the tumor. […]
When the tumors reached 100-200 mm^3 in size (about 7 to 14 days), the mice were randomized into four groups, 5 mice per group. […] Tumor volumes were measured as described in Example 3. […]

Consider `COc1ccc2c(c1)c(CC(=O)O)c(C)n2C(=O)c1ccc(Cl)cc1` [indomethacin], for which the T/C ratio is given as 0.60.
